Data published in ChEMBL document CHEMBL1212761, “Biologic activities of the TolC-like protein of Neisseria meningitidis as assessed by functional complementation in Escherichia coli” (2010).
Converted amounts (≈) assume the structure as drawn.

Assays:
Type in all cases: functional
Neisseria meningitidis [1] = experiment: Antimicrobial activity against Neisseria meningitidis M7 by agar dilution method
Neisseria meningitidis [2] = experiment: Antimicrobial activity against Neisseria meningitidis M7tolC::Kan by agar dilution method
Neisseria meningitidis [3] = experiment: Antimicrobial activity against Neisseria meningitidis M7mtrE::Spc by agar dilution method
Neisseria meningitidis [4] = experiment: Antimicrobial activity against Neisseria meningitidis M7tolC::Kan mtr::Spc by agar dilution method
Escherichia coli [5] = experiment: Antimicrobial activity against Escherichia cloi RAM1129 transfected with pGCC4 containg IPTG-inducible lacZ promoter by agar dilution method
Escherichia coli [6] = experiment: Antimicrobial activity against Escherichia cloi RAM1129 transfected with pNK1 containg Neisseria meningitidis tolC gene by agar dilution method
Escherichia coli [7] = experiment: Antimicrobial activity against Escherichia cloi RAM4100 transfected with pGCC4 containg IPTG-inducible lacZ promoter by agar dilution method
Escherichia coli [8] = experiment: Antimicrobial activity against Escherichia cloi RAM4100 transfected with pNK1 containg Neisseria meningitidis tolC gene by agar dilution method
Escherichia coli [9] = experiment: Antimicrobial activity against Escherichia coli RAM4100 by agar dilution method
Escherichia coli [10] = experiment: Antimicrobial activity against Escherichia coli RAM1129 by agar dilution method

**Q.** With `CC[C@H]1OC(=O)[C@H](C)[C@@H](O[C@H]2C[C@@](C)(OC)[C@@H](O)[C@H](C)O2)[C@H](C)[C@@H](O[C@@H]2O[C@H](C)C[C@H](N(C)C)[C@H]2O)[C@](C)(O)C[C@@H](C)CN(C)[C@H](C)[C@@H](O)[C@]1(C)O` [AZITHROMYCIN] as the compound, how does the MIC (Neisseria meningitidis [1]) read?
**A.** The MIC was 2 µg/mL (≈ 2.67 µM).

**Q.** And the MIC (Neisseria meningitidis [2])?
**A.** The MIC was 2 µg/mL (≈ 2.67 µM).

**Q.** And the MIC (Neisseria meningitidis [3])?
**A.** The MIC was 0.125 µg/mL (≈ 0.167 µM).

**Q.** And the MIC (Neisseria meningitidis [4])?
**A.** The MIC was 0.125 µg/mL (≈ 0.167 µM).

**Q.** `CC[C@H](C)[C@H](NC(=O)[C@H](CCCCN)NC(=O)[C@H](CCC(=O)O)NC(=O)[C@H](CCCCN)NC(=O)[C@H](CO)NC(=O)[C@H](CCCCN)NC(=O)[C@H](CCCNC(=N)N)NC(=O)[C@H](Cc1ccccc1)NC(=O)[C@H](Cc1ccccc1)NC(=O)[C@H](CC(=O)O)NC(=O)CNC(=O)[C@H](CC(C)C)NC(=O)[C@@H](N)CC(C)C)C(=O)NCC(=O)N[C@@H](CCCCN)C(=O)N[C@@H](CCC(=O)O)C(=O)N[C@@H](Cc1ccccc1)C(=O)N[C@@H](CCCCN)C(=O)N[C@@H](CCCNC(=N)N)C(=O)N[C@H](C(=O)N[C@H](C(=O)N[C@@H](CCC(N)=O)C(=O)N[C@@H](CCCNC(=N)N)C(=O)N[C@H](C(=O)N[C@@H](CCCCN)C(=O)N[C@@H](CC(=O)O)C(=O)N[C@@H](Cc1ccccc1)C(=O)N[C@@H](CC(C)C)C(=O)N[C@@H](CCCNC(=N)N)C(=O)N[C@@H](CC(N)=O)C(=O)N[C@@H](CC(C)C)C(=O)N[C@H](C(=O)N1CCC[C@H]1C(=O)N[C@@H](CCCNC(=N)N)C(=O)N[C@H](C(=O)N[C@@H](CCC(=O)O)C(=O)N[C@@H](CO)C(=O)O)[C@@H](C)O)C(C)C)[C@@H](C)CC)C(C)C)[C@@H](C)CC` [CATHELICIDIN] was tested. Which MIC (Neisseria meningitidis [1]) did it give?
**A.** Its MIC is 7.8 µg/mL (≈ 1.74 µM).

**Q.** What about the MIC (Neisseria meningitidis [2]) of the same compound?
**A.** Its MIC is 7.8 µg/mL (≈ 1.74 µM).

**Q.** What about the MIC (Neisseria meningitidis [3]) of the same compound?
**A.** Its MIC is 1.98 µg/mL (≈ 0.441 µM).

**Q.** And the MIC (Neisseria meningitidis [4])?
**A.** Its MIC is 1.98 µg/mL (≈ 0.441 µM).

**Q.** `O=C(O)c1cn(C2CC2)c2cc(N3CCNCC3)c(F)cc2c1=O` [CIPROFLOXACIN] was tested. Which MIC (Neisseria meningitidis [1]) did it give?
**A.** Its MIC is 0.02 µg/mL (≈ 0.0604 µM).

**Q.** And the MIC (Neisseria meningitidis [2])?
**A.** The MIC was 0.02 µg/mL (≈ 0.0604 µM).

**Q.** What about the MIC (Neisseria meningitidis [3]) of the same compound?
**A.** The MIC was 0.02 µg/mL (≈ 0.0604 µM).

**Q.** And the MIC (Neisseria meningitidis [4])?
**A.** Its MIC is 0.02 µg/mL (≈ 0.0604 µM).

**Q.** Which MIC (Escherichia coli [5]) does the source give for `CC[C@H]1OC(=O)[C@H](C)[C@@H](O[C@H]2C[C@@](C)(OC)[C@@H](O)[C@H](C)O2)[C@H](C)[C@@H](O[C@@H]2O[C@H](C)C[C@H](N(C)C)[C@H]2O)[C@](C)(O)C[C@@H](C)C(=O)[C@H](C)[C@@H](O)[C@]1(C)O` [ERYTHROMYCIN] here?
**A.** The MIC was 5 µg/mL (≈ 6.81 µM).

**Q.** What about the MIC (Escherichia coli [6]) of the same compound?
**A.** The MIC was 5 µg/mL (≈ 6.81 µM).

**Q.** And the MIC (Escherichia coli [7])?
**A.** Its MIC is 300 µg/mL (≈ 409 µM).

**Q.** And the MIC (Escherichia coli [8])?
**A.** The MIC was 300 µg/mL (≈ 409 µM).

**Q.** How did the MIC (Escherichia coli [9]) turn out when `CN(C)c1ccc(C(=C2C=CC(=[N+](C)C)C=C2)c2ccc(N(C)C)cc2)cc1.[Cl-]` [GENTIAN VIOLET] was run?
**A.** The MIC was over 40 µg/mL.

**Q.** What about the MIC (Escherichia coli [10]) of the same compound?
**A.** The MIC was 1.5 µg/mL.

**Q.** And the MIC (Escherichia coli [5])?
**A.** Its MIC is 1.5 µg/mL.

**Q.** And the MIC (Escherichia coli [6])?
**A.** The MIC was over 40 µg/mL.

**Q.** For `CC[n+]1c(-c2ccccc2)c2cc(N)ccc2c2ccc(N)cc21.[Br-]` [HOMIDIUM BROMIDE], which MIC (Neisseria meningitidis [1]) is on record?
**A.** Its MIC is 12 µg/mL.

**Q.** And the MIC (Neisseria meningitidis [2])?
**A.** The MIC was 12 µg/mL.

**Q.** What about the MIC (Neisseria meningitidis [3]) of the same compound?
**A.** The MIC was 0.75 µg/mL.

**Q.** And the MIC (Neisseria meningitidis [4])?
**A.** Its MIC is 0.75 µg/mL.

**Q.** And the MIC (Escherichia coli [9])?
**A.** The MIC was over 200 µg/mL.

**Q.** What about the MIC (Escherichia coli [10]) of the same compound?
**A.** Its MIC is 5 µg/mL.

**Q.** What about the MIC (Escherichia coli [5]) of the same compound?
**A.** Its MIC is 5 µg/mL.

**Q.** What about the MIC (Escherichia coli [6]) of the same compound?
**A.** The MIC was over 200 µg/mL.

**Q.** What does the source list for `CO[C@@H]1[C@@H](OC(N)=O)[C@@H](O)[C@H](Oc2ccc3c(O)c(NC(=O)c4ccc(O)c(CC=C(C)C)c4)c(=O)oc3c2C)OC1(C)C` [NOVOBIOCIN]?
**A.** MIC (Escherichia coli [9]): 500 µg/mL (≈ 816 µM); MIC (Escherichia coli [10]): 40 µg/mL (≈ 65.3 µM); MIC (Escherichia coli [5]): 40 µg/mL (≈ 65.3 µM); MIC (Escherichia coli [6]): 500 µg/mL (≈ 816 µM)

**Q.** `CCCCCCCCCCCCCCCC(=O)O` [PALMITIC ACID] was tested. Which MIC (Neisseria meningitidis [1]) did it give?
**A.** Its MIC is 400 µg/mL (≈ 1560 µM).

**Q.** What about the MIC (Neisseria meningitidis [2]) of the same compound?
**A.** The MIC was 400 µg/mL (≈ 1560 µM).

**Q.** What about the MIC (Neisseria meningitidis [3]) of the same compound?
**A.** The MIC was 50 µg/mL (≈ 195 µM).

**Q.** What about the MIC (Neisseria meningitidis [4]) of the same compound?
**A.** The MIC was 50 µg/mL (≈ 195 µM).
